Measured values published in patent US12390532B2, “ALK protein regulator and anti-tumor application thereof” (SHANGHAITECH UNIVERSITY, priority 2019, dated 2025).
Where two headings read alike, the source gives them in different places.

System: SR cells (NPM-ALK, human anaplastic large cell lymphoma cells)
Test: Proliferation inhibition (IC50) in SR cells, CCK8 (WST) reagent
Format: cell-based
Conditions: 72 h
Method: The ALK gene rearrangement positive cell line used was SR cells (NPM-ALK, human anaplastic large cell lymphoma cells). MDA-MB231 was a triple-negative breast cancer cell. Both SR cells and MDA-MB231 cells were purchased from ATCC.
The tumor cell line used was daily cultured in a 37° C. incubator containing 5% CO2. The medium was RPMI1640 supplemented with 10% FCS and Penicillin-Streptomycin.
The IC50 of the compound of the present disclosure was determined using Promega's Cell Titer Blue, Cell Titer GLO or commercially available WST reagents. The specific steps were as follows: the cells were seeded in a 96-well plate containing 100 microliters of RPMI medium containing serum at a number of 2000 cells/well. On the second day, the original drug and the compound of the present disclosure were serially diluted and added to the cells. After 72 hours of treatment with the compound of the present disclosure, the cell activity detection reagent was added to the culture medium for cell activity determination according to the instructions. The negative control was DMSO, and the positive control was the original drug, and the cells were treated in the same manner as the compound of the present disclosure. The growth inhibition of the compounds of the present disclosure on cells was plotted by Prism Graphpad software and the IC50 of the compounds of the present disclosure was counted from it.
We conducted dose-dependent experiments on the designed and synthesized compounds of the present disclosure in SR cells. […] The cells were treated with different concentrations of compounds (starting at 10 μM, 3 times dilution factor, 10 concentrations). After 72 hours, the cells were detected using CCK8 reagent (WST).

[1] = read-out: IC50 (half inhibitory concentration), Alectinib series in lymphoma cell lines, SR cells, WST reagent, 72 hours
[2] = SR cells, WST reagent, 72 hours, read-out: IC50 (half inhibitory concentration), Brigatinib series in lymphoma cell lines

Structure (SMILES) | IC50 [1] [nM] | IC50 [2] [nM]
CCc1cc2c(cc1N1CCC(N)CC1)C(C)(C)c1[nH]c3cc(C#N)ccc3c1C2=O [Alectinib derivative B (SIAIS184193), 8-(4-aminopiperidin-1-yl)-9-ethyl-6,6-dimethyl-11-oxo-6,11-dihydro-5H-benzo[b]carbazole-3-carbonitrile] | 9.1 ± 5.5 | –
CCc1cc2c(cc1N1CCC(N3CCNCC3)CC1)C(C)(C)c1[nH]c3cc(C#N)ccc3c1C2=O [Alectinib derivative C (SIAIS184192), 9-Ethyl-6,6-dimethyl-11-oxo-8-(4-(piperazin-1-yl)piperidin-1-yl)-6,11-dihydro-5H-benzo[b]carbazole-3-carbonitrile] | 10.1 ± 4.3 | –
CCc1cc2c(cc1N1CCC(N3CCN(C(=O)CCCNc4cccc5c4CN(C4CCC(=O)NC4=O)C5=O)CC3)CC1)C(C)(C)c1[nH]c3cc(C#N)ccc3c1C2=O (stereo not shown) [SIAIS262092, 8-(4-(4-(4-((2-(2,6-dioxopiperidin-3-yl)-1-oxoisoindolin-4-yl)amino)butyryl)piperazin-1-yl)piperidin-1-yl)-9-ethyl-6,6-dimethyl-11-oxo-6,11-dihydro-5H-benzo[b]carbazole-3-carbonitrile] | 1.37 ± 0.87 | –
CCc1cc2c(cc1N1CCC(N3CCN(C(=O)CCCCNc4cccc5c4CN(C4CCC(=O)NC4=O)C5=O)CC3)CC1)C(C)(C)c1[nH]c3cc(C#N)ccc3c1C2=O (stereo not shown) [SIAIS262093, 8-(4-(4-(5-((2-(2,6-dioxopiperidin-3-yl)-1-oxoisoindolin-4-yl)amino)pentanoyl)piperazin-1-yl)piperidin-1-yl)-9-ethyl-6,6-dimethyl-11-oxo-6,11-dihydro-5H-benzo[b]carbazole-3-carbonitrile] | 2.65 ± 1.72 | –
CCc1cc2c(cc1N1CCC(N3CCN(C(=O)CCCCCCNc4cccc5c4CN(C4CCC(=O)NC4=O)C5=O)CC3)CC1)C(C)(C)c1[nH]c3cc(C#N)ccc3c1C2=O (stereo not shown) [SIAIS262095, 8-(4-(4-(7-((2-(2,6-dioxopiperidin-3-yl)-1-oxoisoindolin-4-yl)amino)heptanoyl)piperazin-1-yl)piperidin-1-yl)-9-ethyl-6,6-dimethyl-1-oxo-6,11-dihydro-5H-benzo[b]carbazole-3-carbonitrile] | 3.2 ± 1.93 | –
CCc1cc2c(cc1N1CCC(N3CCN(CCCCCNc4cccc5c4C(=O)N(C4CCC(=O)NC4=O)C5=O)CC3)CC1)C(C)(C)c1[nH]c3cc(C#N)ccc3c1C2=O (stereo not shown) [SIAIS293008, 8-(4-(4-(5-((2-(2,6-dioxopiperidin-3-yl)-1,3-dioxoisoindolin-4-yl)amino)pentyl)piperazin-1-yl)piperidin-1-yl)-9-ethyl-6,6-dimethyl-11-oxo-6,11-dihydro-5H-benzo[b]carbazole-3-carbonitrile] | 5.2 | –
CCc1cc2c(cc1N1CCC(N3CCN(CCCCCCNc4cccc5c4C(=O)N(C4CCC(=O)NC4=O)C5=O)CC3)CC1)C(C)(C)c1[nH]c3cc(C#N)ccc3c1C2=O (stereo not shown) [SIAIS293009, 8-(4-(4-(6-((2-(2,6-dioxopiperidin-3-yl)-1,3-dioxoisoindolin-4-yl)amino)hexyl)piperazin-1-yl)piperidin-1-yl)-9-ethyl-6,6-dimethyl-11-oxo-6,11-dihydro-5H-benzo[b]carbazole-3-carbonitrile] | 15.1 | –
CCc1cc2c(cc1N1CCC(NC(=O)CCCCNc3cccc4c3CN(C3CCC(=O)NC3=O)C4=O)CC1)C(C)(C)c1[nH]c3cc(C#N)ccc3c1C2=O (stereo not shown) [SIAIS293012, N-(1-(3-cyano-9-ethyl-6,6-dimethyl-11-oxo-6,11-dihydro-5H-benzo[b]carbazol-8-yl)piperidin-4-yl)-5-((2-(2,6-dioxopiperidin-3-yl)-1-oxoisoindolin-4-yl)amino)pentanamide] | 10.3 ± 5.1 | –
COc1cc(N2CCC(N3CCN(CCCCCC#Cc4cccc5c4CN(C4CCC(=O)NC4=O)C5=O)CC3)CC2)ccc1Nc1ncc(Cl)c(Nc2ccccc2P(C)(C)=O)n1 (stereo not shown) [SIAIS293015, 3-(4-(7-(4-(1-(4-((5-chloro-4-((2-(dimethylphosphono)phenyl)amino)pyrimidin-2-yl)amino)-3-methoxyphenyl)piperidin-4-yl)piperazin-1-yl)hept-1-yn-1-yl)-1-oxoisoindolin-2-yl)piperidine-2,6-dione] | – | 1.2
COc1cc(N2CCC(N3CCN(C(=O)COc4cccc5c4C(=O)N(C4CCC(=O)NC4=O)C5=O)CC3)CC2)ccc1Nc1ncc(Cl)c(Nc2ccccc2P(C)(C)=O)n1 (stereo not shown) [SIAIS293016, 4-(2-(4-(1-(4-((5-chloro-4-((2-(dimethylphosphono)phenyl)amino)pyrimidin-2-yl)amino)-3-methoxyphenyl)piperidin-4-yl)piperazin-1-yl)-2-oxoethoxy)-2-(2,6-dioxopiperidin-3-yl)isoindoline-1,3-dione] | – | 7.2
COc1cc(N2CCC(NCCCCCCSc3cccc4c3CN(C3CCC(=O)NC3=O)C4=O)CC2)ccc1Nc1ncc(Cl)c(Nc2ccccc2P(=O)(OC)OC)n1 (stereo not shown) [SIAIS293110, 3-(4-((6-((1-(4-((5-chloro-4-((2-(dimethylphosphono)phenyl)amino)pyrimidin-2-yl)amino)-3-methoxyphenyl)piperidin-4-yl)amino)hexyl)thio)-1-oxoisoindolin-2-yl)piperidine-2,6-dione] | – | 0.33 ± 0.11
CCc1cc2c(cc1N1CCN(CCCCCc3cccc4c3CN(C3CCC(=O)NC3=O)C4=O)CC1)C(C)(C)c1[nH]c3cc(C#N)ccc3c1C2=O (stereo not shown) [SIAIS350081, 8-(4-(5-(2-(2,6-dioxopiperidin-3-yl)-1-oxoisoindolin-4-yl)pentyl)piperazin-1-yl)-9-ethyl-6,6-dimethyl-11-oxo-6,11-dihydro-5H-benzo[b]carbazole-3-carbonitrile] | 6.5 ± 4 | –
COc1cc(N2CCC(N3CCN(CCCC#Cc4cccc5c4C(=O)N(C4CCC(=O)NC4=O)C5=O)CC3)CC2)ccc1Nc1ncc(Cl)c(Nc2ccccc2P(C)(C)=O)n1 (stereo not shown) [SIAIS352010, 4-(5-(4-(1-(4-((5-chloro-4-((2-(dimethylphosphono)phenyl)amino)pyrimidin-2-yl)amino)-3-methoxyphenyl)piperidin-4-yl)piperazin-1-yl)pent-1-yn-1-yl)-2-(2,6-dioxopiperidin-3-yl)isoindoline-1,3-dione] | – | 19 ± 5.8

Second part, the compound after the results:

IC50 [1] [nM] | IC50 [2] [nM] | Structure (SMILES)
2.9 | – | CCc1cc2c(cc1N1CCC(N3CCN(CCCCC#Cc4cccc5c4CN(C4CCC(=O)NC4=O)C5=O)CC3)CC1)C(C)(C)c1[nH]c3cc(C#N)ccc3c1C2=O (stereo not shown) [SIAIS293002, 8-(4-(4-(6-(2-(2,6-dioxopiperidin-3-yl)-1-oxoisoindolin-4-yl)hex-5-yn-1-yl)piperazin-1-yl)piperidin-1-yl)-9-ethyl-6,6-dimethyl-11-oxo-6,11-dihydro-5H-benzo[b]carbazole-3-carbonitrile]
9.5 | – | CCc1cc2c(cc1N1CCC(N3CCN(CCCCCCCC#Cc4cccc5c4CN(C4CCC(=O)NC4=O)C5=O)CC3)CC1)C(C)(C)c1[nH]c3cc(C#N)ccc3c1C2=O (stereo not shown) [SIAIS293004, 8-(4-(4-(9-(2-(2,6-dioxopiperidin-3-yl)-1-oxoisoindolin-4-yl)non-8-yn-1-yl)piperazin-1-yl)piperidin-1-yl)-9-ethyl-6,6-dimethyl-11-oxo-6,11-dihydro-5H-benzo[b]carbazole-3-carbonitrile]
1.9 | – | CCc1cc2c(cc1N1CCC(N3CCN(CCCCc4cccc5c4CN(C4CCC(=O)NC4=O)C5=O)CC3)CC1)C(C)(C)c1[nH]c3cc(C#N)ccc3c1C2=O (stereo not shown) [SIAIS293005, 8-(4-(4-(4-(2-(2,6-dioxopiperidin-3-yl)-1-oxoisoindolin-4-yl)butyl)piperazin-1-yl)piperidin-1-yl)-9-ethyl-6,6-dimethyl-11-oxo-6,11-dihydro-5H-benzo[b]carbazole-3-carbonitrile]
3.2 | – | CCc1cc2c(cc1N1CCC(N3CCN(CCCCCC#Cc4cccc5c4CN(C4CCC(=O)NC4=O)C5=O)CC3)CC1)C(C)(C)c1[nH]c3cc(C#N)ccc3c1C2=O (stereo not shown) [SIAIS293014, 8-(4-(4-(7-(2-(2,6-dioxopiperidin-3-yl)-1-oxoisoindolin-4-yl)hept-6-yn-1-yl)piperazin-1-yl)piperidin-1-yl)-9-ethyl-6,6-dimethyl-11-oxo-6,11-dihydro-5H-benzo[b]carbazole-3-carbonitrile]
0.1 ± 0.02 | – | CCc1cc2c(cc1N1CCC(N3CCN(CCCCSc4cccc5c4CN(C4CCC(=O)NC4=O)C5=O)CC3)CC1)C(C)(C)c1[nH]c3cc(C#N)ccc3c1C2=O (stereo not shown) [SIAIS293060, 8-(4-(4-(4-((2-(2,6-dioxopiperidin-3-yl)-1-oxoisoindolin-4-yl)thio)butyl)piperazin-1-yl)piperidin-1-yl)-9-ethyl-6,6-dimethyl-11-oxo-6,11-dihydro-5H-benzo[b]carbazole-3-carbonitrile]
1.1 ± 0.7 | – | CCc1cc2c(cc1N1CCC(N3CCN(CCCCCc4cccc5c4CN(C4CCC(=O)NC4=O)C5=O)CC3)CC1)C(C)(C)c1[nH]c3cc(C#N)ccc3c1C2=O (stereo not shown) [SIAIS350083, 8-(4-(4-(5-(2-(2,6-dioxopiperidin-3-yl)-1-oxoisoindolin-4-yl)pentyl)piperazin-1-yl)piperidin-1-yl)-9-ethyl-6,6-dimethyl-11-oxo-6,11-dihydro-5H-benzo[b]carbazole-3-carbonitrile]
